Reference: patent US11028078B2 (The Johns Hopkins University, priority 2011, dated 2021)

Assays:
[1] = system: HUVEC; assay: HUVEC proliferation assay ([3H]thymidine incorporation); assay type: cell-based, human; details: HUVEC; for IC50: Homo sapiens, 3H thymidine incorporation, in μM, read-out: Proliferation IC50
Procedure: The activity of the analogs against HUVEC proliferation, an in vitro proxy for angiogenesis inhibition (Table 3) was analyzed. […]
Pooled HUVEC (Lonza) were grown in EGM-2 bullet kit media (Lonza) and used at passage eight or lower. The proliferation assays were conducted as previously described (Nacev, B.; Low, W. K.; Huang, Z.; Su, T.; Su, Z.; Alkuraya, H.; Kasuga, D.; Sun, W.; Trager, M.; Braun, M.; Fischer, G.; Zhang, K.; Liu, J. O., Acalcineurin-independent mechanism of angiogenesis inhibition by anon-immunosuppressive Cyclosporin Aanalog. J. Pharmacol. Exp. Ther. 2011, DOI:10.1124/jpet.111.18085).

[2] = target: T1, CYP3A4 (Homo sapiens, UniProt P08684); assay: CYP3A4 enzyme assay (Vivid CYP3A4 Green Screening Kit); assay type: in vitro ADME; details: % enzyme inhibition at 1 μM drug / % enzyme inhibition at 1 μM itraconazole
T1 construct: purchased ThermoFisher P2857; host or cells: baculosomes
T1 sequence (P08684 whole entry): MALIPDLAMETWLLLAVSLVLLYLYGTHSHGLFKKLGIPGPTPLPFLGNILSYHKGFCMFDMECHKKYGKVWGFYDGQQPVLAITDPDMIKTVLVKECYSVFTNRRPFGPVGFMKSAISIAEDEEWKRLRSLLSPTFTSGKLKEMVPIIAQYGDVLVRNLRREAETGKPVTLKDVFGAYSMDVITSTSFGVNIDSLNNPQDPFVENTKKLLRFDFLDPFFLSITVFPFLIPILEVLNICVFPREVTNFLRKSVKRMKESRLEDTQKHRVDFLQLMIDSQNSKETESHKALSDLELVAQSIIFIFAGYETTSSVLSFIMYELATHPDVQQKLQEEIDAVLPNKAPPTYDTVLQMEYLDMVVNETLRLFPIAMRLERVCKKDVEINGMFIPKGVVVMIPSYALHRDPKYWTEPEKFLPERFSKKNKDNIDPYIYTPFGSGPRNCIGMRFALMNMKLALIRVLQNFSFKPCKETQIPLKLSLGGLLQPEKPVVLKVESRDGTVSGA
Procedure: And CYP3A4 inhibition was initially determined using a cell-free fluorescence-based assay at a final concentration of 1 μM (Table 7).
CYP3A4 enzyme assay. CYP3A4 enzyme activity was tested using Vivid™ CYP3A4 Green Screening Kit (ThermoFisher, #P2857) using the manufacturer's protocol. Briefly, CYP3A4 baculosomes and drugs were incubated 10 min at 37° C. Then Vivid® Substrates were added and the fluorescence (ex/em:485/520) were read every 1 min for 60 minute.

[3] = system: VEGFR2; assay: VEGFR2 glycosylation in HUVEC (Western blot scoring); assay type: cell-based, human; details: VEGFR2 hypoglycosylation score in HUVEC, 2 μM, 24 h
Procedure: VEGFR2 hypoglycosylation was scored either robust (++), intermediate (+), or absent (−) (FIG. 6).
HUVEC were seeded at 5×10^4 per well of a 6-well plate in 3 mL of media. After an overnight recovery, the media was replaced with 2 mL fresh media and the analogs were added from 200× stocks in DMSO. Following a 24-h incubation, the media was aspirated and 2×SDS sample buffer was added to the cells which were incubated on ice for 10 min and then boiled for 10 min. […] Following three washes in TBS-T, the membrane was incubated with anti-rabbit horseradish peroxidase conjugated IgG (GE Healthcare) (1:5000-1:10000 dilution) in 1% BSA in TBS-T. The membranes were washed three times in TBS-T, incubated for 1-5 minutes with ECL substrate (Immobilon Wester, Milipore) and visualized (Kodak Image Staion 440 CF).

[4] = system: MB cultures derived from Ptch−/+; p53−/− mice; assay: Medulloblastoma (MB) proliferation assay; assay type: cell-based, mouse; details: mouse medulloblastoma cultures, 96 h; relative to itraconazole
Description: These cultures were derived from Ptch^−/+; p53^−/− mice that spontaneously develop medulloblastoma associated with ligand independent Hh pathway activation.
MB cultures were derived from mouse Ptch^−/+; p53^−/− MB grown as hind-flank allografts in nude mice (Harlan). Briefly, tumors were mechanically disrupted and made into single cell suspensions by two passages through a 70 μm nylon filter. Cells were pelleted by centrifugation and resuspended in PBS pH 7.4 twice. The cell suspension was then subjected to centrifugation at 1000×g for 25 min over a ficoll gradient. The viable cell layer formed at the ficoll boundary was then collected, suspended in PBS, and pelleted by centrifugation. The resulting pellet was then suspended and cultured as “neurospheres” in Neurobasal Media-A supplemented with retinoic acid deficient B-27 extract (NBMedia). Cells were cultured for three passages, with neurospheres disaggregated using Accumax (Innovative Cell Technologies) between passages.
Cultured MB neurospheres were disaggregated as described and 1×10^4 cells were seeded into wells of a 96-well assay plate in NBMedia and exposed to multiple analogue concentrations: Relative cell numbers following a 96-h incubation were quantified by CellTiter 96® AQueous One Solution Cell Proliferation Assay (Promega) per manufacturer's recommendations using a SpectraMax M2e spectrophotometer and SoftMax Pro software (Molecular Devices). Data was analyzed using Prism5 (GraphPad Software) and IC50 and IC90 values were determined from dose-response curves fitted to mean corrected absorbance normalized to control treatment.

[5] = system: Gli1 transcript; assay: Quantification of Gli1 transcript by TaqMan analysis in MB cells (Hh pathway); assay type: cell-based, mouse; details: Gli1 transcript fold induction score; MB cells exposed 24 h at the IC90 for MB proliferation
Description: Inhibitors of the Hh pathway are known to inhibit MB cell proliferation. However, MB cell proliferation is also affected by drugs with targets other than Hh signaling.
Following drug exposure, cells were washed in PBS and pelleted by centrifugation at 300×g. Cell pellets were lysed in Trizol reagent (Invitrogen). Total RNA was separated and collected in the aqueous phase following centrifugation of lysate in the presence of chloroform. Total RNA was ethanol precipitated and purified over RNeasy Mini Kit (Qiagen) filter columns per manufacturer's recommendations. Transcript levels were quantified using gene-specific TaqMan primer/probe sets and the StepOne Plus Real-Time PCR system (Applied Biosystems) on cDNA reverse transcribed using the QuantiTect Reverse Transcription Kit (Qiagen) per manufacturers' recommendations. Results were quantified using StepOne Plus software v2.1 (Applied Biosystems) and were expressed as fold induction relative to control samples using the A ΔCt (2^−ΔΔCt) method with actin as an internal control. The primer/probe set (Applied Biosystems) for TaqMan PCR for mouse Gli-1 was Mm00494645_m1, and for mouse actin was Mm00607939_s1.

[6] = Table 7, relative to itraconazole
[7] = IC50 of analog relative to IC50 of itraconazole

Compound | Proliferation (IC50/IC50 Itra) [1, 6] | IC50 [1] | CYP3A4 Inhibition (compared to intracozanole at 1 μm) [2] | Proliferation (IC50/IC50 Itra) [1, 7] | Glycosylation (2 μM dose) [3] | MB Proliferation (IC50/IC50 Itra) [4] | Gli I Inhibition (IC90 Prolif. dose) [5]
CCC(C)n1ncn(-c2ccc(N3CCN(c4ccc(OC[C@@H]5CO[C@@](Cn6ccnc6C(C)C)(c6ccc(Cl)cc6Cl)O5)cc4)CC3)cc2)c1=O (stereo partly drawn) [Compound 245, 1-sec-butyl-4-(4-(4-(4-(((2S,4R)-2-(2,4-dichlorophenyl)-2-((2-isopropyl-1H-imidazol-1-yl)methyl)-1,3-dioxolan-4-yl)methoxy)phenyl)piperazin-1-yl)phenyl)-1H-1,2,4-triazol-5(4H)-one] | 0.4 | 0.068 µM | 0.07 |  |  |  | 
CCc1nccn1C[C@@]1(c2ccc(Cl)cc2Cl)OC[C@@H](COc2ccc(N3CCN(c4ccc(-n5cnn(C(C)CC)c5=O)cc4)CC3)cc2)O1 (stereo partly drawn) [Compound 243, 1-(sec-butyl)-4-(4-(4-(4-(((2S,4R)-2-(2,4-dichlorophenyl)-2-((2-ethyl-1H-imidazol-1-yl)methyl)-1,3-dioxolan-4-yl)methoxy)phenyl)piperazin-1-yl)phenyl)-1H-1,2,4-triazol-5(4H)-one] |  | 0.225 µM | 0.08 |  |  |  | 
CCC(C)n1ncn(-c2ccc(N3CCN(c4ccc(OC[C@@H]5CO[C@@](CN6CCNCC6)(c6ccc(Cl)cc6Cl)O5)cc4)CC3)cc2)c1=O (stereo partly drawn) [Compound 266, 1-(sec-butyl)-4-(4-(4-(4-(((2S,4R)-2-(2,4-dichlorophenyl)-2-(piperazin-1-ylmethyl)-1,3-dioxolan-4-yl)methoxy)phenyl)piperazin-1-yl)phenyl)-1H-1,2,4-triazol-5(4H)-one] |  | 0.608 µM | 1.09 |  |  |  | 
CCC(C)n1ncn(-c2ccc(N3CCN(c4ccc(OC[C@@H]5CO[C@@](Cc6ccccc6)(c6ccc(Cl)cc6Cl)O5)cc4)CC3)cc2)c1=O (stereo partly drawn) [Compound 260, 4-(4-(4-(4-(((2R,4R)-2-benzyl-2-(2,4-dichlorophenyl)-1,3-dioxolan-4-yl)methoxy)phenyl)piperazin-1-yl)phenyl)-1-sec-butyl-1H-1,2,4-triazol-5(4H)-one] |  |  | No inhibition |  |  |  | 
CCC(C)n1ncn(-c2ccc(N3CCN(c4ccc(OC[C@@H]5CO[C@@](Cn6ncnn6)(c6ccc(Cl)cc6Cl)O5)cc4)CC3)cc2)c1=O (stereo partly drawn) [Compound 249, 4-(4-(4-(4-(((2S,4R)-2-((2H-tetrazol-2-yl)methyl)-2-(2,4-dichlorophenyl)-1,3-dioxolan-4-yl)methoxy)phenyl)piperazin-1-yl)phenyl)-1-sec-butyl-1H-1,2,4-triazol-5(4H)-one] | 0.6 | 0.102 µM | 0.2 |  |  |  | 
CCC(C)n1ncn(-c2ccc(N3CCN(c4ccc(OC[C@@H]5CO[C@@](Cn6ccnc6-c6ccccc6)(c6ccc(Cl)cc6Cl)O5)cc4)CC3)cc2)c1=O (stereo partly drawn) [Compound 246, 1-sec-butyl-4-(4-(4-(4-(((2S,4R)-2-(2,4-dichlorophenyl)-2-((2-phenyl-1H-imidazol-1-yl)methyl)-1,3-dioxolan-4-yl)methoxy)phenyl)piperazin-1-yl)phenyl)-1H-1,2,4-triazol-5(4H)-one] |  | 0.136 µM | 0.27 |  |  |  | 
CC(C)n1ncn(-c2ccc(N3CCN(c4ccc(OC[C@@H]5CO[C@@](Cn6cncn6)(c6ccc(Cl)cc6Cl)O5)cc4)CC3)cc2)c1=O (relative stereo) [Compound 7d, cis-(2S,4R)-4-[4-[4-[4-[[2-(2,4-Dichlorophenyl)-2-(1H-1,2,4-triazol-1-ylmethyl)-1,3-dioxolan-4-yl]methoxy]phenyl]-lpiperazinyl]phenyl]-2,4-dihydro-2-isopropyl-3H-1,2,4-triazol-3-one] |  |  |  | 2.18 | − | 1.06 | − (≥0.45)
CC/C=C/CCn1ncn(-c2ccc(N3CCN(c4ccc(OCC5COC(Cn6cncn6)(c6ccc(Cl)cc6Cl)O5)cc4)CC3)cc2)c1=O [Compound 7s, cis-(2S,4R)-4-[4-[4-[4-[[2-(2,4-Dichlorophenyl)-2-(1H-1,2,4-triazol-1-ylmethyl)-1,3-dioxolan-4-yl]methoxy]phenyl]-lpiperazinyl]phenyl]-2,4-dihydro-2-((E)-hex-3-enyl)-3H-1,2,4-triazol-3-one] |  |  |  | 1.57 | − | 0.63 | ++ (≤0.15)
cis-(2R,4S)-4-[4-[4-[4-[[2-(2,4-Dichlorophenyl)-2-(1H-1,2,4-triazol-1-ylmethyl)-1,3-dioxolan-4-yl]methoxy]phenyl]-lpiperazinyl]phenyl]-2,4-dihydro-2-(pent-4-ynyl)-3H-1,2,4-triazol-3-one [Compound 7r] |  |  |  | 0.14 | − | 0.71 | ++ (≤0.15)
CCCCn1ncn(-c2ccc(N3CCN(c4ccc(OC[C@@H]5CO[C@@](Cn6cncn6)(c6ccc(Cl)cc6Cl)O5)cc4)CC3)cc2)c1=O (relative stereo) [Compound 7e, cis-(2S,4R)-4-[4-[4-[4-[[2-(2,4-Dichlorophenyl)-2-(1H-1,2,4-triazol-1-ylmethyl)-1,3-dioxolan-4-yl]methoxy]phenyl]-lpiperazinyl]phenyl]-2,4-dihydro-2-butyl-3H-1,2,4-triazol-3-one] |  |  |  | 2.10 | − | 0.70 | − (≥0.45)
Cn1ncn(-c2ccc(N3CCN(c4ccc(OC[C@@H]5CO[C@@](Cn6cncn6)(c6ccc(Cl)cc6Cl)O5)cc4)CC3)cc2)c1=O (relative stereo) [Compound 7a, cis-(2S,4R)-4-[4-[4-[4-[[2-(2,4-Dichlorophenyl)-2-(UH-1,2,4-triazol-1-ylmethyl)-1,3-dioxolan-4-yl]methoxy]phenyl]-lpiperazinyl]phenyl]-2,4-dihydro-2-methyl-3H-1,2,4-triazol-3-one] |  |  |  | 4.00 | − | 2.71 | − (≥0.45)
CC/C=C\CCn1ncn(-c2ccc(N3CCN(c4ccc(OCC5COC(Cn6cncn6)(c6ccc(Cl)cc6Cl)O5)cc4)CC3)cc2)c1=O [Compound 7t, cis-(2S,4R)-4-[4-[4-[4-[[2-(2,4-Dichlorophenyl)-2-(1H-1,2,4-triazol-1-ylmethyl)-13-dioxolan-4-yl]methoxy]phenyl]-lpiperazinyl]phenyl]-2,4-dihydro-2-((Z)-hex-3-enyl)-3H-1,2,4-triazol-3-one] |  |  |  | 0.73 | − | 0.94 | ++ (≤0.15)
